{
  "source": "patent US9585957B2",
  "about": "“Adenosine receptor agonists and antagonists to modulate T cell responses” (THE JOHNS HOPKINS UNIVERSITY, priority 2007, dated 2017)",
  "key": {"A.E7 T cells": {"system": "A.E7 T cells", "assay": "Anergy induction in A.E7 T cells: incubation with APCs, PCC and CGS, then rechallenge without CGS", "assay_type": "cell-based", "procedure": "A.E7 is a clonotypic CD4^+, Th1 T cell clone specific for pigeon cytochrome c (PCC) and is maintained as previously described (Powell et al. J Immunol. 1999; 162:2775-2784).\nStudies were conducted to determine the effects of A2a receptor stimulation on T cell function. A.E7 is a clonotypic CD4′, Th1 T cell clone specific for pigeon cytochrome c (PCC) and is maintained as previously described (Powell, J. D., Lerner, C. G. & Schwartz, R. H. Inhibition of cell cycle progression by rapamycin induces T cell clonal anergy even in the presence of costimulation. J Immunol 162, 2775-84 (1999)). A.E7s were rendered anergic with anti-CD3 or by incubation with APC, PCC and […] CGS-21680. For antibody induced anergy, 6-well plates were previously coated with anti-CD3 three hours prior to stimulation and washed with PBS. For mock stimulations, the well was not coated with anti-CD3. A.E7s were incubated in the coated well overnight at 37° C., then harvested and washed extensively and rested (24 hours for CAMP measurement, 4-6 days for proliferation and cytokine production). […] A.E7s were then isolated via a ficoll gradient, washed extensively, and immediately rechallenged for proliferation and cytokine production. To assess proliferation to PCC, T cells were extensively washed and 5×10^6 cells were added to 50×10^4 irradiated BIO.A splenocytes and increasing doses of PCC in triplicate in a 96-well flat-bottomed plate. After 48 hours, cells were pulsed with [^3H] thymidine and harvested 16 hrs later. Tritium incorporation was determined by a Packard Matrix 96 direct beta counter (Packard bioscience). For cytokine production, a 96-well round-bottom plate was preincubated with […] anti-CD3 for 3 hours. […] All conditions were done in triplicate and were cultured overnight. Supernatant was collected and assessed for cytokine levels (eBioscience for IL-2, IFN-y, TNF-a; R&D Systems for GM-CSF) as per manufacturers' instructions. For each sample, multiple dilutions of the supernatant were assayed and concentration was determined based upon the dilution that best fit the most linear aspect of the standard curve. For CD25 measurements, the cells used for cytokine production were stained with anti-CD25, harvested and measured by flow cytometry.\nNext, the T cells were isolated and rechallenged with APCs and peptide in the absence of CGS (secondary stimulation)."}, "A.E7 T cell clones": {"system": "A.E7 T cell clones", "assay": "Cytokine production and CD25 expression of A.E7s stimulated with anti-CD3 and anti-CD28 in the presence of CGS", "assay_type": "cell-based", "settings": "for IC50: T-cell", "procedure": "Studies were conducted to determine the effects of A2a receptor stimulation on T cell function. A.E7 is a clonotypic CD4', Th1 T cell clone specific for pigeon cytochrome c (PCC) and is maintained as previously described (Powell, […]. & Schwartz, R. H. Inhibition of cell cycle progression by rapamycin induces T cell clonal anergy even in the presence of costimulation. J Immunol 162, 2775-84 (1999)). A.[…] were rendered anergic with anti-CD3 or by incubation with APC, PCC and 1 pM CGS-21680. For antibody induced anergy, 6-well plates were previously coated with anti-CD3 three hours prior to stimulation and washed with PBS. For mock stimulations, the well was not coated with anti-CD3. A.[…] were incubated in the coated well overnight at 37° C., then harvested and washed extensively and rested (24 hours for CAMP measurement, 4-6 days for proliferation and cytokine production). […] To assess proliferation to PCC, T cells were extensively washed and 5×10^6 cells were added to 50×10^4 irradiated BIO.A splenocytes and increasing doses of PCC in triplicate in a 96-well flat-bottomed plate. After 48 hours, cells were pulsed with [^3H] thymidine and harvested 16 hrs later. Tritium incorporation was determined by a Packard Matrix 96 direct beta counter (Packard bioscience). […] All conditions were done in triplicate and were cultured overnight. Supernatant was collected and assessed for cytokine levels (eBioscience for IL-2, IFN-y, TNF-a; R&D Systems for GM-CSF) as per manufacturers' instructions. For each sample, multiple dilutions of the supernatant were assayed and concentration was determined based upon the dilution that best fit the most linear aspect of the standard curve. For CD25 measurements, the cells used for cytokine production were stained with anti-CD25, harvested and measured by flow cytometry."}, "[1]": {"system": "6.5+ T cells in C3HA mice", "assay": "Survival of C3HA mice after adoptive transfer of 6.5+ T cells (mouse model of autoimmunity)", "assay_type": "in vivo", "procedure": "Clonotypic CD4^+ T cells were harvested from 6.5^+ transgenic mice. The unfractionated population was resuspended to contain 1.2×10^6 6.5^+ T cells in 200 uL of HBSS for i.v. injection through the tail vein of C3HA mice. […] The percentage of CD4^+, 6.5^+, Thy 1.1^−, Thy 1.2^− clonotypic T cells was determined by flow cytometric analysis. CD44 level was also analyzed to ensure that these clonotypic T cells were not activated in donor mice and were naive in phenotype. The cells were washed three times with HBSS and the unfractionated population was resuspended to contain the appropriate number of clonotypic T cells in 200 uL of HBSS for i.v. injection through the tail vein of C3HA.\nA survival curve was generated from two separate experiments for a total of 17 mice for each condition."}},
  "note": "Where two headings read alike, the source gives them in different places.",
  "data": [
    {"smiles": "CCNC(=O)[C@H]1O[C@@H](n2cnc3c(N)nc(NCCc4ccc(CCC(=O)O)cc4)nc32)[C@H](O)[C@@H]1O", "note": "[CGS, 2-p-(2-carboxyethyl)phenethyl-amino-5-N-ethyl-carboxamidoadenosine]", "values": [
      {"measurement": "response upon rechallenge after mock induction", "setting": "A.E7 T cells; 1 μM CGS during mock induction, no peptide present, rechallenge without CGS (FIG. 2a)", "result": "no effect"},
      {"measurement": "proliferation upon rechallenge", "setting": "A.E7 T cells; 1 μM CGS with peptide during initial stimulation, rechallenge without CGS (FIG. 2b)", "result": "reduced proliferation"},
      {"measurement": "IFN-γ production upon rechallenge", "setting": "A.E7 T cells; 1 μM CGS with peptide during initial stimulation, rechallenge without CGS (FIG. 2c)", "result": "reduced"},
      {"measurement": "induction of anergy in the presence of exogenous IL-2", "setting": "A.E7 T cells; peptide, exogenous IL-2 and 1 μM CGS during induction (FIGS. 2d and e)", "result": "the presence of IL-2 prevented the ability of CGS to induce anergy"},
      {"measurement": "cytokine production", "setting": "A.E7 T cell clones; A.E7 T cell clones activated with anti-CD3 and anti-CD28 in the presence of CGS", "result": "dose-dependent inhibition"},
      {"measurement": "IC50", "setting": "A.E7 T cell clones; read-out: ID50, inhibition of GM-CSF production", "result": 9.1, "unit": "nM"},
      {"measurement": "IC50", "setting": "A.E7 T cell clones; read-out: ID50, inhibition of IFN-γ production", "result": 760, "unit": "nM"},
      {"measurement": "IC50", "setting": "A.E7 T cell clones; read-out: ID50, inhibition of IL-2 production", "result": 4.7, "unit": "nM"},
      {"measurement": "IC50", "setting": "A.E7 T cell clones; read-out: ID50, inhibition of TNF-α production", "result": 100, "unit": "nM"},
      {"measurement": "production of the chemokine MIP-1α", "setting": "A.E7 T cell clones; anti-CD3 and anti-CD28, 20 nM CGS (FIG. 1d)", "result": "not inhibited"},
      {"measurement": "TCR-induced CD25 expression", "setting": "A.E7 T cell clones; anti-CD3 and anti-CD28, 1 μM CGS (FIG. 1b)", "result": "did not inhibit"},
      {"measurement": "IL-2 production", "setting": "A.E7 T cell clones; anti-CD3 and anti-CD28 in the presence of the A2a receptor agonist, 20 nM CGS (FIG. 1d)", "result": "markedly decreased"},
      {"measurement": "effect on mice receiving LAG-3 null T cells", "setting": "[1]; C3HA mice receiving LAG-3 null T cells, 4 day treatment with CGS (FIG. 5c)", "result": "no affect"},
      {"measurement": "mice in which death was prevented, Wt T cells", "setting": "[1]; C3HA mice receiving Wt T cells, 4 day treatment with CGS (FIG. 5c)", "result": 100, "unit": "%"},
      {"measurement": "long-term survival of mice", "setting": "[1]; C3HA mice, lethal dose of 6.5+ T cells, CGS 2.5 mg/kg i.p. twice daily for four days after transfer (FIG. 4a)", "result": 80, "unit": "%"},
      {"measurement": "protection of mice given A2a receptor KO T cells", "setting": "[1]; C3HA recipients given A2a receptor KO 6.5+ T cells, CGS treatment (FIG. 4d)", "result": "fails to protect"}
    ]}
  ]
}
